Values after ≈ are worked out from the molar mass of the structure shown. Bounds are passed on as bounds.

The conditions of the data set: buffer; pH 7.4; 200.0 µM.
One may read the solubility (kinetic) as the concentration staying in solution when a stock, usually in DMSO, is diluted into the medium. On to `COc1ccc(-c2nsc(SCC(=O)NCC3CCCO3)n2)cc1` (configuration not stated), for which the kinetic solubility was over 54.8 µg/mL.
In the case of `COc1ccc(C2C(C#N)=C(N)OC3=C2C(=O)CCC3)cc1OC` (configuration not stated), the solubility (kinetic) was over 49 µg/mL.
Next, `COc1ccc(S(=O)(=O)N2CCOCC2)cc1NC(=O)COc1ccc2c(C)cc(=O)oc2c1`: 4.1 µg/mL (≈ 8.39 µM); `CCc1ccccc1NC(=O)c1sc2nc(C)cc(C)c2c1N`: 0.5 µg/mL (≈ 1.54 µM); `CN1CCN(c2ccc(NC(=O)c3ccccc3)cc2)CC1`: over 44.3 µg/mL.
The compound `O=[N+]([O-])c1ccc(N2CCOCC2)cc1N1CCCCC1` gave a solubility (kinetic) of over 43.7 µg/mL.
`CCCCN1CC2=C(C1=O)C(c1ccc(O)cc1)NC(=O)N2C` (configuration not stated): the solubility (kinetic) is over 47.3 µg/mL.
On to `CCOc1ccc(S(=O)(=O)N(C)C2CCCCC2)cc1`, for which the kinetic solubility was 18.1 µg/mL (≈ 60.9 µM).
`O=C(NCCc1ccc(Cl)cc1)c1ccc(=O)[nH]c1`: the kinetic solubility came out at 38.1 µg/mL (≈ 138 µM).
Next, `Nc1c([N+](=O)[O-])c(=O)oc2ccccc12`: over 30.9 µg/mL.
In turn, `O=C(/C=C/c1ccccc1Cl)Nc1ccccc1` returned a solubility (kinetic) of 0.6 µg/mL (≈ 2.33 µM).
Next, `COc1cc(C(=O)NC2CC(C)(C)NC(C)(C)C2)cc(OC)c1OC`: over 52.6 µg/mL; `Cc1cc(C)nc(NC(=S)NC(=O)c2ccccc2F)n1`: 8.1 µg/mL (≈ 26.6 µM).
Take `COc1cccc(CN2C(=O)C(C)Oc3ccccc32)c1` (configuration not stated): the solubility (kinetic) came out at 26.5 µg/mL (≈ 93.5 µM).
Take `CCn1c(SCC(=O)Nc2nccs2)nnc1C1CC1`: the solubility (kinetic) is over 46.4 µg/mL.
Next, `COc1cc(CC(=O)O)c([N+](=O)[O-])cc1OC`: over 36.2 µg/mL.
In turn, `CC1CCc2cccc3c(O)cc(=O)n1c23` (configuration not stated) gave a solubility (kinetic) of over 32.3 µg/mL.
Next, `CC(=O)n1c2ccccc2c2nc3ccccc3nc21`: 1.1 µg/mL (≈ 4.21 µM).
The result for `COc1ccccc1NC1=Nc2cccc3cccc1c23` reads 4.9 µg/mL (≈ 17.9 µM); that for `COC(=O)c1c(C)oc(C)c1S(=O)(=O)NCc1ccc(Cl)cc1`, 5 µg/mL (≈ 14 µM).
The result for `C=CCNC(=O)c1ccc(N(Cc2ccccc2)S(C)(=O)=O)cc1` reads over 51.7 µg/mL; that for `On1c(-c2ccccc2)nc2ncccc21`, over 31.7 µg/mL.
The compound `Cc1sc(NC(=O)c2cccnc2)nc1-c1ccccc1` came in with a solubility (kinetic) of 1.1 µg/mL (≈ 3.72 µM).
Compound `Fc1ccc(F)c(NC2=NCCCCC2)c1` returned a solubility (kinetic) of over 33.6 µg/mL.
Next, `COc1cc(OC)cc(C(=O)Nc2nnc(-c3cccnc3)o2)c1`: over 48.9 µg/mL.
Consider `CCN(CC)S(=O)(=O)c1cc(NC(=O)NCCCl)ccc1C`, for which the solubility (kinetic) was over 52.2 µg/mL.
Consider `O=C(COC(=O)c1ccc(O)cc1O)NC1CC1`, for which the solubility (kinetic) was over 37.7 µg/mL.
Next, `COc1ccc(C(CNC(=O)c2cc3c(s2)CCCC3)N2CCOCC2)cc1` (configuration not stated): 36.4 µg/mL (≈ 90.9 µM); `Cc1ccccc1NC(=O)OCc1ccccc1`: 23.7 µg/mL (≈ 98.2 µM).
For the compound `CN(C)S(=O)(=O)c1cccc(C(=O)Nc2ccccc2C(=O)NC2CC2)c1`, the kinetic solubility was determined as 47 µg/mL (≈ 121 µM).
Compound `Cc1ccc(NC(=O)COC(=O)C2=COCCO2)c([N+](=O)[O-])c1` returned a kinetic solubility of 6.6 µg/mL (≈ 20.5 µM).
Take `CC(OC(=O)CCCc1nc2ccccc2s1)C(=O)NC(N)=O` (configuration not stated): the kinetic solubility was over 50.3 µg/mL.
Turning to `Cc1ccc2nc3c(nc2c1C)CCCC3`, the solubility (kinetic) was 7.1 µg/mL (≈ 33.4 µM).
The compound `COCCNCC(=O)N1c2ccccc2Sc2ccccc21` came in with a solubility (kinetic) of 38.1 µg/mL (≈ 121 µM).
Compound `COc1ccc(Cl)cc1S(=O)(=O)Nc1ccc(Cl)cn1` had a kinetic solubility of 1.3 µg/mL (≈ 3.9 µM).
In turn, `CC(=O)Nc1ccc(NC(=O)Nc2ccccc2)cc1` gave a kinetic solubility of 6.3 µg/mL (≈ 23.4 µM).
`Cc1ccc(NC(=O)CCCn2c(=O)oc3ccccc32)c(O)c1`: the kinetic solubility stood at 12.6 µg/mL (≈ 38.6 µM).
As for `O=C(Nc1cccc2cccnc12)c1cc(F)c(F)cc1Cl`, the solubility (kinetic) is under 0.3 µg/mL.
In turn, `CC(C)(Cc1ccc(O)cc1)NC(=O)SCc1ccccc1` showed a kinetic solubility of over 47.3 µg/mL.
Turning to `CC(=O)OCC[N+](C)(C)C.[Cl-]`, the solubility (kinetic) was over 27.2 µg/mL.
Regarding `O=c1ccc(-c2ccccc2)no1`, the kinetic solubility was over 26 µg/mL.
Take `O=[N+]([O-])c1ccc(COc2cccc3cccnc23)cc1`: the solubility (kinetic) is 2.4 µg/mL (≈ 8.56 µM).
As to `COc1ccc(NC(=O)CC2CC3CCC2C3)cn1` (configuration not stated), the kinetic solubility amounted to 29.9 µg/mL (≈ 115 µM).
`CCOC(=O)CN1C(=O)CCSc2ccc(Cl)cc21` registered a kinetic solubility of over 45 µg/mL.
The compound `Cc1ccc(NC(=O)N2CCCCCC2)cc1` returned a solubility (kinetic) of over 34.8 µg/mL.
Compound `Cl.NCCc1nnc(SCc2ccccc2Cl)o1` had a solubility (kinetic) of over 45.9 µg/mL.
The result for `Cc1ccccc1NC(=O)c1cc(-c2ccccc2)n(CCCN2CCOCC2)c1C` reads 16.3 µg/mL (≈ 39 µM); that for `Cc1sc2ncnc(SCC(=O)Nc3cccc(S(N)(=O)=O)c3)c2c1C`, 5.3 µg/mL (≈ 13 µM); that for `CC1=C(C(=O)N(C)C)C(c2ccc(C)s2)NC(=S)N1` (configuration not stated), 31.4 µg/mL (≈ 106 µM).
Turning to `O=C(O)CN1C(=O)C(=O)N(Cc2cccc(F)c2)C1=O`, the solubility (kinetic) was over 42 µg/mL.
`CCCCNC(=S)N1CCN(C)CC1.O=C(O)C(=O)O`: the solubility (kinetic) was over 45.8 µg/mL.
`Cc1ccc2nc(NC(=O)c3ccc(Br)o3)sc2c1` returned a solubility (kinetic) of under 0.4 µg/mL.
